Data: US9980943B2, “Methods of treating muscular dystrophy” (BOARD OF REGENTS OF THE NEVADA SYSTEM OF HIGHER EDUCATION, …, priority 2013, dated 2018)

How the values were obtained:
Format in all cases: cell-based, mouse
[1] = system: β-galactosidase in CMV-LacZ C2C12 myotubes; experiment: CMV-LacZ secondary screen in C2C12 myotubes (β-Gal stabilizing assay); conditions: for CMV-LACZ in Myotubes (β-galactosidase activity relative to DMSO): CMV-LacZ C2C12 myotubes, 96-well format; for CMV-LACZ in Myotubes, signal relative to DMSO: C2C12 CMV-LacZ myotubes, fold relative to DMSO
Summary of the method: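 Dose-response runs at 0.5–40 μM (0.5, 1, 5, 10, 20, 40 μM; N=2 per point) used a clonal C2C12 line carrying CMV-LacZ. Cells were assayed as myoblasts or as differentiated myotubes, and β-galactosidase levels were read with the FDG fluorogenic substrate.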

[2] = system: α7 integrin (LacZ reporter in α7βgal+/− myoblasts); experiment: Myoblast α7+/LacZ integrin FDG assay (Burkin assay in myoblasts, 96-well); conditions: α7+/LacZ myoblasts, 96-well
[3] = system: α7 integrin (LacZ reporter in α7+/LacZ myotubes); experiment: Myotube α7 integrin FDG assay (Burkin assay in myotubes, 96-well); conditions: myotubes

Compound	CMV-LACZ in Myotubes (β-galactosidase activity relative to DMSO) ([1]; 5 uM)	CMV-LACZ in Myotubes (β-galactosidase activity relative to DMSO) ([1]; 10 uM)	CMV-LACZ in Myotubes (β-galactosidase activity relative to DMSO) ([1]; 20 uM)	CMV-LACZ in Myotubes (β-galactosidase activity relative to DMSO) ([1]; 40 uM)	CMV-LACZ in Myotubes, signal relative to DMSO ([1]; 5 uM)	CMV-LACZ in Myotubes, signal relative to DMSO ([1]; 10 uM)	CMV-LACZ in Myotubes, signal relative to DMSO ([1]; 20 uM)	CMV-LACZ in Myotubes, signal relative to DMSO ([1]; 40 uM)	Burkin Assay in Myoblasts, value relative to DMSO ([2]; 0.5 uM)	Burkin Assay in Myoblasts, value relative to DMSO ([2]; 1 uM)	Burkin Assay in Myoblasts, value relative to DMSO ([2]; 5 uM)	Burkin Assay in Myoblasts, value relative to DMSO ([2]; 10 uM)	Burkin Assay in Myoblasts, value relative to DMSO ([2]; 20 uM)	Burkin Assay in Myoblasts, value relative to DMSO ([2]; 40 uM)	Burkin Assay in Myotubes (signal relative to DMSO) ([3]; 0.5 uM)	Burkin Assay in Myotubes (signal relative to DMSO) ([3]; 1 uM)	Burkin Assay in Myotubes (signal relative to DMSO) ([3]; 5 uM)	Burkin Assay in Myotubes (signal relative to DMSO) ([3]; 10 uM)	Burkin Assay in Myotubes (signal relative to DMSO) ([3]; 20 uM)	Burkin Assay in Myotubes (signal relative to DMSO) ([3]; 40 uM)	further results
COCCn1c(=N)c(S(=O)(=O)c2ccc(Br)cc2)cc2c(=O)n3ccccc3nc21 [MLS001141113-01]	1.134	1.383	0.9823	1.913																	fold induction at 0.5 µM ([2]; Mus musculus, Myoblast, 48 h, 0.5 uM, read-out: Burkin Assay in Myoblasts, value relative to DMSO): 1.23; fold induction at 1 µM ([2]; Mus musculus, Myoblast, 48 h, 1 uM, read-out: Burkin Assay in Myoblasts, value relative to DMSO): 1.06; fold induction at 5 µM ([2]; Mus musculus, Myoblast, 48 h, 5 uM, read-out: Burkin Assay in Myoblasts, value relative to DMSO): 1.08; fold induction at 10 µM ([2]; Mus musculus, Myoblast, 48 h, 10 uM, read-out: Burkin Assay in Myoblasts, value relative to DMSO): 1.07; fold induction at 20 µM ([2]; Mus musculus, Myoblast, 48 h, 20 uM, read-out: Burkin Assay in Myoblasts, value relative to DMSO): 0.915; fold induction at 40 µM ([2]; Mus musculus, Myoblast, 48 h, 40 uM, read-out: Burkin Assay in Myoblasts, value relative to DMSO): 0.56; fold induction at 0.5 µM ([3]; Mus musculus, Myotube, 0.5 uM, read-out: Burkin Assay in Myotubes (signal relative to DMSO)): 1.04; fold induction at 1 µM ([3]; Mus musculus, Myotube, 1 uM, read-out: Burkin Assay in Myotubes (signal relative to DMSO)): 0.854; fold induction at 5 µM ([3]; Mus musculus, Myotube, 5 uM, read-out: Burkin Assay in Myotubes (signal relative to DMSO)): 1.05; fold induction at 10 µM ([3]; Mus musculus, Myotube, 10 uM, read-out: Burkin Assay in Myotubes (signal relative to DMSO)): 0.929; fold induction at 20 µM ([3]; Mus musculus, Myotube, 20 uM, read-out: Burkin Assay in Myotubes (signal relative to DMSO)): 0.887; fold induction at 40 µM ([3]; Mus musculus, Myotube, 40 uM, read-out: Burkin Assay in Myotubes (signal relative to DMSO)): 0.812
COC(=O)c1ccc(C2C(C(=O)c3cc4ccccc4o3)=C(O)C(=O)N2CCN2CCOCC2)cc1 (stereo not shown) [MLS001146463-01]					1.074	0.9392	1.06	1.141	1.026	0.9781	0.9027	0.9293	0.7318	0.8061	0.8827	0.8032	1.216	0.7514	0.8465	0.8424	
Cc1cccc(NC(=O)c2ccc(N3C(=O)C4CCCCC4C3=O)cc2)c1C (stereo not shown) [MLS001147727-01]					1.12	0.9069	1.2365	1.1835													Burkin Assay in Myoblasts, signal relative to DMSO ([2]; 0.5 uM): 1.212; Burkin Assay in Myoblasts, signal relative to DMSO ([2]; 1 uM): 1.039; Burkin Assay in Myoblasts, signal relative to DMSO ([2]; 5 uM): 1.029; Burkin Assay in Myoblasts, signal relative to DMSO ([2]; 10 uM): 0.8892; Burkin Assay in Myoblasts, signal relative to DMSO ([2]; 20 uM): 1.128; Burkin Assay in Myoblasts, signal relative to DMSO ([2]; 40 uM): 0.9044; Burkin Assay in Myotubes, α7 integrin LacZ reporter signal relative to DMSO ([3]; 0.5 uM): 0.9937; Burkin Assay in Myotubes, α7 integrin LacZ reporter signal relative to DMSO ([3]; 1 uM): 0.7877; Burkin Assay in Myotubes, α7 integrin LacZ reporter signal relative to DMSO ([3]; 5 uM): 1.101; Burkin Assay in Myotubes, α7 integrin LacZ reporter signal relative to DMSO ([3]; 10 uM): 0.9716; Burkin Assay in Myotubes, α7 integrin LacZ reporter signal relative to DMSO ([3]; 20 uM): 1.11; Burkin Assay in Myotubes, α7 integrin LacZ reporter signal relative to DMSO ([3]; 40 uM): 0.9652
COc1ccc(-c2csc3ncnc(N4CCN(c5ccccc5[N+](=O)[O-])CC4)c23)cc1 [MLS001149811-01]	0.9566	1.048	1.122	1.65					0.6497	0.8888	1.01	1.022	1	0.6172	0.957	0.9993	0.9434	0.9086	0.8456	0.5432	
